Series [1] is described as follows: Drug concentration in po dosed monkey plasma assessed as concentration of parent compound. The series is classed as ADME, organism-based, Macaca mulatta. The conditions noted are these: rhesus monkey, in vivo.
Series [2] concerns the target T1, Solute carrier organic anion transporter family member 1B1 (Homo sapiens, UniProt Q9Y6L6).
T1 sequence (Q9Y6L6 whole entry): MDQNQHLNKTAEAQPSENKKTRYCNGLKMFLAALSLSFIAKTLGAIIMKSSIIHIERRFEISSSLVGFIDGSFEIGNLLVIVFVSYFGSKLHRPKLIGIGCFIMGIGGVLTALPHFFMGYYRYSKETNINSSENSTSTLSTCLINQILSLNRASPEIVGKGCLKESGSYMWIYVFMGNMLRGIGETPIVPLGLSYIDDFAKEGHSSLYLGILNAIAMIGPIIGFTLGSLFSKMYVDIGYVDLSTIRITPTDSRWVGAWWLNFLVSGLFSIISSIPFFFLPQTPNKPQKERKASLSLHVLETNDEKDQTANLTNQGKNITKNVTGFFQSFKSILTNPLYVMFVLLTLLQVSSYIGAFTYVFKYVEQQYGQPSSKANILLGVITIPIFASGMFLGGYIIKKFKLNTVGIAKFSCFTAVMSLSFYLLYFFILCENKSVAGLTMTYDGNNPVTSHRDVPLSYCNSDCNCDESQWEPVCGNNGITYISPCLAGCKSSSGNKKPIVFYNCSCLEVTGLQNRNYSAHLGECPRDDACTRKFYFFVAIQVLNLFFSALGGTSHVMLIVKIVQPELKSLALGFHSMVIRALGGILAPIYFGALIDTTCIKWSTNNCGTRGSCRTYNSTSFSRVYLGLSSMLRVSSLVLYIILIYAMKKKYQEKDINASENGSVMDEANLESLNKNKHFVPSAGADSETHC
The experiment in a line: Inhibition of OATP1B1 (unknown origin). The format is ADME.

Series [3] can be described thus: Protein binding in CD-1 mouse plasma assessed as free fraction at 3 mg/kg, po or 1 mg/kg, iv measured up to 24 hrs by LC-MS/MS analysis. The format is ADME, organism-based.
A short description of series [4]: Protein binding in Sprague-Dawley rat plasma assessed as free fraction at 3 mg/kg, po or 1 mg/kg, iv measured up to 24 hrs by LC-MS/MS analysis. The format is ADME, organism-based.
Series [5] has as its target Bile salt export pump (Homo sapiens, UniProt O95342). The series can be described thus: Inhibition of BSEP (unknown origin). The format is ADME.
The nature of series [6]: Protein binding in human plasma assessed as free fraction at 3 mg/kg, po or 1 mg/kg, iv measured up to 24 hrs by LC-MS/MS analysis. The series is classed as ADME, organism-based.

Chain of Bile salt export pump (O95342 whole entry): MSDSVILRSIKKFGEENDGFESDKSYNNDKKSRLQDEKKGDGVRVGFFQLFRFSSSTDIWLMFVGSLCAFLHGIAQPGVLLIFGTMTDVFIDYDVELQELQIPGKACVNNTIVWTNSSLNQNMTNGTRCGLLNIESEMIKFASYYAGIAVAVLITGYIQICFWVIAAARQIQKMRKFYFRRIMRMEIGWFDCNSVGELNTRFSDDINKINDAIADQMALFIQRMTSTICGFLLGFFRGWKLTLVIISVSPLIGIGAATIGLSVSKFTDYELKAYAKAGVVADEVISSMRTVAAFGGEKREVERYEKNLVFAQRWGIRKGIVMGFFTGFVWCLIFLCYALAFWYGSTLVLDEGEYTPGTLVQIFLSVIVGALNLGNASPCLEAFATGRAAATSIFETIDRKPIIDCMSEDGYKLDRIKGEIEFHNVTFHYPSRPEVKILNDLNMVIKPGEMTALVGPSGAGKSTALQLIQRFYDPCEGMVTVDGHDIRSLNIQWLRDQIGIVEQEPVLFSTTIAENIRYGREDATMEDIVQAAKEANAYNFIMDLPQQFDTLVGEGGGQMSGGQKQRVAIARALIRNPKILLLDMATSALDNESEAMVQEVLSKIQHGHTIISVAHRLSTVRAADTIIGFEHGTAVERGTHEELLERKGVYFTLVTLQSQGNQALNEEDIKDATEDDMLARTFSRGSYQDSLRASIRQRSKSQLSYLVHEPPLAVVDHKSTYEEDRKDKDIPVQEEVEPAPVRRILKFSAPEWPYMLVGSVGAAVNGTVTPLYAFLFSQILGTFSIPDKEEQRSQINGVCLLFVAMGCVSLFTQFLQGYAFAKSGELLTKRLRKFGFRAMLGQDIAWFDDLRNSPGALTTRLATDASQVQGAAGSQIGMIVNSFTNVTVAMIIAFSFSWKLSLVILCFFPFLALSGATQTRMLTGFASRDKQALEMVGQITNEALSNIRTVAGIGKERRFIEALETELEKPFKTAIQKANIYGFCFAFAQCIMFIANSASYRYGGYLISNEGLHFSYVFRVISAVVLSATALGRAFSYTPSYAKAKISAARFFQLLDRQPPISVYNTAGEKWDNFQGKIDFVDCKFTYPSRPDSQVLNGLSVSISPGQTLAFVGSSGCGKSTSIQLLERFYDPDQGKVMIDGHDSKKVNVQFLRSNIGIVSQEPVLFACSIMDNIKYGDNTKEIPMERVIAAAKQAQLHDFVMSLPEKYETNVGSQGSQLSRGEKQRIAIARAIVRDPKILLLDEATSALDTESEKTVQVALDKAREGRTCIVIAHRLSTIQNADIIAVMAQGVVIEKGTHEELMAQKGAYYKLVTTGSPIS

Consider `CCCN(C)C(=O)OCc1c(-c2ccc(O[C@H]3CCC[C@H](C(=O)O[C@@H]4O[C@H](C(=O)O)[C@@H](O)[C@H](O)[C@H]4O)C3)c(C)n2)nnn1C`, for which the Drug uptake in series [1] is on record as under 10%.
The term IC50 denotes the concentration that inhibits the measured activity by half. Broadly, the fraction unbound is the share of the substance not bound to proteins or other matrix. `CN(C(=O)OCc1c(-c2ccc(O[C@H]3CCC[C@H](C(=O)O)C3)cn2)nnn1C)C1CCCC1`: the IC50 in series [2] came out at 9.2 µM; in series [5], 46.3 µM. In addition, the free fraction (fraction unbound) at 24 h in series [3] was 0.083; in series [4], 0.025; in series [6], 0.025.
With `CCCNC(=O)OCc1c(-c2ccc(O[C@H]3CCC[C@H](C(=O)O)C3)c(C)n2)nnn1C`, the Drug uptake in series [1] is given as under 10%.
On to `Cc1noc(-c2ccc(O[C@H]3CCC[C@H](C(=O)O)C3)nn2)c1COC(=O)N(C)C1CCCC1` (racemic), for which the IC50 in series [2] is 35.4 µM; in series [5] it was over 50 µM.

These data come from ChEMBL document CHEMBL5034035, “Discovery of an Oxycyclohexyl Acid Lysophosphatidic Acid Receptor 1 (LPA1) Antagonist BMS-986278 for the Treatment of Pulmonary Fibrotic Diseases” (J Med Chem, 2021).
